Data published in patent US20220064146A1, “KINASE INHIBITOR COMPOUNDS AND COMPOSITIONS AND METHODS OF USE” (ICAHN SCHOOL OF MEDICINE AT MOUNT SINAI, priority 2018, published 2022).
Several values for one entry are separate records, joined by “and”; a condition that tells them apart may be missing. Equal entries are not always repeated.

Target: DYRK1A (Homo sapiens, UniProt Q13627)
Experiment: DYRK1A binding assay (DiscoverX KINOMEscan)
Conditions: eleven serial three fold dilutions, highest concentration 60 μM
Protocol: Compounds were tested for DYRK1A binding activity at the commercial kinase profiling service DiscoverX. DiscoverX uses proprietary KINOMEscan® Assay (Fabian et al., “A Small Molecule-kinase Interaction Map for Clinical Kinase Inhibitors,” Nat. Biotechnol. 23(3):329-336 (2005), which is hereby incorporated by reference in its entirety). Compounds were screened for DYRK1A activity at a single concentration of 3 μM in duplicates. Similarly, the dissociation constant Kd of the hit compounds from the initial screening was determined at DiscoverX using their proprietary KINOMEscan® Assay. Kd values are determined using eleven serial three fold dilutions with the highest concentration of 60 μM.

Structure (SMILES) | Kd
N#Cc1cccc(CNc2ncc(-c3ccc4[nH]c(=O)[nH]c4c3)cn2)c1 [Compound 29f, 3-(((5-(2-Oxo-2,3-dihydro-1H-benzo[d]imidazol-5-yl)pyrimidin-2-yl)amino)methyl)benzonitrile] | 49 nM
O=c1[nH]c2ccc(-c3cnc(NCc4cccc(F)c4)nc3)cc2[nH]1 [Compound 29b, 5-(2-((3-Fluorobenzyl)amino)pyrimidin-5-yl)-1H-benzo[d]imidazol-2(3H)-one] | 91 nM
O=c1[nH]c2ccc(-c3cnc(NCc4ccncc4)nc3)cc2[nH]1 [Compound 30c, 5-(2-((Pyridin-4-ylmethyl)amino)pyrimidin-5-yl)-1H-benzo[d]imidazol-2 (3H)-one] | 130 nM
O=c1[nH]c2ccc(-c3cnc(NCCc4ccccc4)nc3)cc2[nH]1 [Compound 29k, 5-(2-(Phenethylamino)pyrimidin-5-yl)-1H-benzo[d]imidazol-2(3H)-one] | 200 nM
Cn1c(=O)[nH]c2ccc(-c3cnc(NCc4ccc(F)cc4)nc3)cc21 [Compound 17d, 6-(2-((4-Fluorobenzyl)amino)pyrimidin-5-yl)-1-methyl-1H-benzo[d]imidazol-2 (3H)-one] | 90 nM
O=c1[nH]c2ccc(-c3ccc(NCc4ccc(F)cc4)nn3)cc2[nH]1 [Compound 16a, 5-(6-((4-Fluorobenzyl)amino)pyridazin-3-yl)-1H-benzo[d]imidazol-2 (3H)-one] | 7000 nM
CC(Nc1ncc(-c2ccc3[nH]c(=O)[nH]c3c2)cn1)c1ccccc1 (centres unmarked) [Compound 29j, 5-(2-((1-Phenylethyl)amino)pyrimidin-5-yl)-1H-benzo[d]imidazol-2(3H)-one] | 360 nM
O=c1[nH]c2ccc(-c3cnc(NCc4ccc(F)cc4)nc3)cc2[nH]1 [Compound 16b, 5-(2-((4-Fluorobenzyl)amino)pyrimidin-5-yl)-1H-benzo[d]imidazol-2(3H)-one] | 73 nM and 82 nM and 140 nM
c1ccc(CNc2ncc(-c3ccc4[nH]cnc4c3)cn2)cc1 [Compound 17i, 5-(1H-Benzo[d]imidazol-5-yl)-N-benzylpyrimidin-2-amine] | 2000 nM
O=c1[nH]c2ccc(-c3cnc(NCc4ccc(F)cc4)cn3)cc2[nH]1 [Compound 18d, 5-(5-((4-Fluorobenzyl)amino)pyrazin-2-yl)-1H-benzo[d]imidazol-2 (3H)-one] | 260 nM
O=c1[nH]c2ccc(-c3cnc(NCc4ccc(Cl)cc4)nc3)cc2[nH]1 [Compound 29e, 5-(2-((4-Chlorobenzyl)amino)pyrimidin-5-yl)-1H-benzo[d]imidazol-2(3H)-one] | 180 nM
O=c1[nH]c2ccc(-c3cnc(NCc4cccc(Cl)c4)nc3)cc2[nH]1 [Compound 29d, 5-(2-((3-Chlorobenzyl)amino)pyrimidin-5-yl)-1H-benzo[d]imidazol-2(3H)-one] | 280 nM
Fc1ccc(CNc2ncc(-c3ccc4[nH]cnc4c3)cn2)cc1 [Compound 17j, 5-(1H-Benzo[d]imidazol-5-yl)-N-(4-fluorobenzyl)pyrimidin-2-amine] | 2300 nM
O=c1[nH]c2ccc(-c3cnc(NCc4ccccc4F)nc3)cc2[nH]1 [Compound 29a, 5-(2-((2-Fluorobenzyl)amino)pyrimidin-5-yl)-1H-benzo[d]imidazol-2(3H)-one] | 69 nM
O=c1[nH]c2ccc(-c3cnc(NCc4ccccc4)nc3)cc2[nH]1 [Compound 16c] | 50 nM and 95 nM and 80 nM and 60 nM
N#Cc1ccc(CNc2ncc(-c3ccc4[nH]c(=O)[nH]c4c3)cn2)cc1 [Compound 29g, 4-(((5-(2-Oxo-2,3-dihydro-1H-benzo[d]imidazol-5-yl)pyrimidin-2-yl)amino)methyl)benzonnrile] | 120 nM
NC(=O)c1ccc(CNc2ncc(-c3ccc4[nH]c(=O)[nH]c4c3)cn2)cc1 [Compound 32b, 4-(((5-(2-Oxo-2,3-dihydro-1H-benzo[d]imidazo1-5-yl)pyrimidin-2-yl)amino)methyl)benzamide] | 46 nM
O=c1[nH]c2ccc(-c3cnc(NCc4ccc(-c5ccccc5)cc4)nc3)cc2[nH]1 [Compound 29h, 5-(2-(([1,1′-Biphenyl]-4-ylmethyl)amino)pyrimidin-5-yl)-1H-benzo[d]imidazol-2(3H)-one] | 1400 nM
O=c1[nH]c2ccc(-c3cnc(NCc4ccccc4)cn3)cc2[nH]1 [Compound 18c, 5-(5-(Benzylamino)pyrazin-2-yl)-1H-benzo[d]imidazol-2(3H)-one] | 170 nM
O=c1[nH]c2ccc(-c3cnc(NCc4ccccc4Cl)nc3)cc2[nH]1 [Compound 29c, 5-(2-((2-Chlorobenzyl)amino)pyrimidin-5-yl)-1H-benzo[d]imidazol-2(3H)-one] | 250 nM
O=c1[nH]c2ccc(-c3cnc(NCc4cccc5ccccc45)nc3)cc2[nH]1 [Compound 30d, 5-(2-((Naphthalen-1-ylmethyl)amino)pyrimidin-5-yl)-1H-benzo[d]imidazol-2 (3H)-one] | 920 nM
NC(=O)c1cccc(CNc2ncc(-c3ccc4[nH]c(=O)[nH]c4c3)cn2)c1 [Compound 32a, 3-(((5-(2-Oxo-2,3-dihydro-1H-benzo[d]imidazol-5-yl)pyrimidin-2-yl)amino)methyl)benzamide] | 130 nM
Cn1c(=O)[nH]c2ccc(-c3cnc(NCc4ccccc4)nc3)cc21 [Compound 17c, 6-(2-(Benzylamino)pyrimidin-5-yl)-1-methyl-1H-benzo[d]imidazol-2(3H)-one] | 59 nM
O=c1[nH]c2ccc(-c3cnc(NCc4cccnc4)nc3)cc2[nH]1 [Compound 30b, 5-(2-((Pyridin-3-ylmethyl)amino)pyrimidin-5-yl)-1H-benzo[d]imidazol-2(3H)-one] | 190 nM
O=c1[nH]c2ccc(-c3cnc(NCc4ccc5ccccc5c4)nc3)cc2[nH]1 [Compound 30e, 5-(2-((Naphthalen-2-ylmethyl)amino)pyrimidin-5-yl)-1H-benzo[d]imidazol-2(3H)-one] | 7100 nM

Target: T1, DYRK1/DYRK1A (Homo sapiens, UniProt Q13627)
T1 construct: purchased Reaction Biology Corp. (assay service)
Experiment: DYRK1/DYRK1A IC50 assay (Reaction Biology Corp.)
Type: biochemical
Conditions: DYRK1/DYRK1A assay from Reaction Biology Corp.; NI: No inhibition

Structure (SMILES) | IC50 [µM]
O=c1[nH]c2ccc(-c3cnc(Nc4ccccc4F)nc3)cc2[nH]1 [Compound 48a, 5-(2-((2-Fluorophenyl)amino)pyrimidin-5-yl)-1H-benzo[d]imidazol-2(3H)-one] | 0.078
O=c1[nH]c2ccc(-c3cnc(Nc4ccc(F)cc4)nc3)cc2[nH]1 [Compound 48c, 5-(2-((4-Fluorophenyl)amino)pyrimidin-5-yl)-1H-benzo[d]imidazol-2(3H)-one] | 0.058
O=c1[nH]c2ccc(-c3cnc(NCc4c[nH]cn4)nc3)cc2[nH]1 [Compound 51d, 5-(2-(((1H-Imidazol-4-yl)methyl)amino)pyrimidin-5-yl)-1H-benzo[d]imidazol-2(3H)-one] | 0.326
C[C@@H](Nc1ncc(-c2ccc3[nH]c(=O)[nH]c3c2)cn1)c1ccccc1 [Compound 60a, (R)-5-(2-((1-Phenylethyl)amino)pyrimidin-5-yl)-1H-benzo[d]imidazol-2(3H)-one] | 0.499
O=c1[nH]c2ccc(-c3cnc(Nc4cccc(F)c4)nc3)cc2[nH]1 [Compound 48b, 5-(2-((3-Fluorophenyl)amino)pyrimidin-5-yl)-1H-benzo[d]imidazol-2(3H)-one] | 0.0477
C[C@H](Nc1ncc(-c2ccc3[nH]c(=O)[nH]c3c2)cn1)c1ccccc1 [Compound 60b, (S)-5-(2-((1-Phenylethyl)amino)pyrimidin-5-yl)-1H-benzo[d]imidazol-2(3H)-one] | 0.177
COc1ccc(Nc2ncc(-c3ccc4[nH]c(=O)[nH]c4c3)cn2)cc1 [Compound 48i, 5-(2-((4-Methoxyphenyl)amino)pyrimidin-5-yl)-1H-benzo[d]imidazol-2(3H)-one] | 0.0301
O=c1[nH]c2ccc(-c3cnc(NCc4cc[nH]n4)nc3)cc2[nH]1 [Compound 51e, 5-(2-(((1H-Pyrazol-3-yl)methyl)amino)pyrimidin-5-yl)-1H-benzo[d]imidazol-2(3H)-one] | 0.337
O=c1[nH]c2ccc(-c3cnc(NCc4ncc[nH]4)nc3)cc2[nH]1 [Compound 51c, 5-(2-(((1H-Imidazol-2-yl)methyl)amino)pyrimidin-5-yl)-1H-benzo[d]imidazol-2(3H)-one] | 0.96
COCCOc1cccc(CNc2ncc(-c3ccc4[nH]c(=O)[nH]c4c3)cn2)c1 [Compound 62, 5-(2-((3-(2-Methoxyethoxy)benzyl)amino)pyrimidin-5-yl)-1H-benzo[d]imidazol-2(3H)-one] | 0.0484
O=c1[nH]c2ccc(-c3cncc(NCc4ccccc4)n3)cc2[nH]1 [Compound 18m, 5-(6-(Benzylamino)pyrazin-2-yl)-1H-benzo[d]imidazol-2(3H)-one] | 0.00113
O=c1[nH]c2ccc(-c3cnc(NCc4ncco4)nc3)cc2[nH]1 [Compound 51f, 5-(2-((Oxazol-2-ylmethyl)amino)pyrimidin-5-yl)-1H-benzo[d]imidazol-2(3H)-one] | 0.427
CCn1c(=O)[nH]c2ccc(-c3cnc(NCc4ccccc4)nc3)cc21 [Compound 57a, 6-(2-(Benzylamino)pyrimidin-5-yl)-1-ethyl-1H-benzo[d]imidazol-2(3H)-one] | 0.243
COc1ccccc1Nc1ncc(-c2ccc3[nH]c(=O)[nH]c3c2)cn1 [Compound 48g, 5-(2-((2-Methoxyphenyl)amino)pyrimidin-5-yl)-1H-benzo[d]imidazol-2(3H)-one] | 0.497
O=c1[nH]c2ccc(-c3cnc(NCc4ccco4)nc3)cc2[nH]1 [Compound 51a, 5-(2-((Furan-2-ylmethyl)amino)pyrimidin-5-yl)-1H-benzo[d]imidazol-2(3H)-one] | 0.0732
O=c1[nH]c2ccc(-c3cnc(Nc4ccccc4Cl)nc3)cc2[nH]1 [Compound 48d, 5-(2-((2-Chlorophenyl)amino)pyrimidin-5-yl)-1H-benzo[d]imidazol-2 (3H)-one] | 0.059
